Test results published in patent US20240059712A1, “BIFUNCTIONAL COMPOUNDS AND PHARMACEUTICAL USES THEREOF” (priority 2022, published 2024).

Target: T1, KRAS^G12D protein (Homo sapiens, UniProt P01116, G12D)
T1 construct: host or cells: Aspc-1 (AsPC-1) cells
Assay: Protein degradation study (western blot) in Aspc-1 cells
Type: cell-based
Conditions: for DC50: Aspc-1 cells, half-maximum degradation concentration, read-out: DC50 of compounds induced Ras G12D protein degradation; for inhibition at 0.005 µM / inhibition at 0.05 µM / inhibition at 0.1 µM / inhibition at 1 µM / inhibition at 0.001 µM: ASPC1, 24 h, 24 hours; for inhibition at 0.005 µM: Aspc-1 cells treated with 0.005 μM compound; for inhibition at 0.005 µM / inhibition at 0.05 µM / inhibition at 0.001 µM: read-out: Rate of degradation; for inhibition at 0.05 µM: Aspc-1 cells treated with 50 nM compound; for inhibition at 0.1 µM: Aspc-1 cells treated with 0.1 μM compound; for inhibition at 0.1 µM / inhibition at 1 µM: read-out: Rate of protein degradation; for inhibition at 1 µM: Aspc-1 cells treated with 1 μM compound; for inhibition at 0.001 µM: Aspc-1 cells treated with 1 nM compound
Protocol: Aspc-1 (Cobioer, CBP60546) cells in exponential growth phase were inoculated on a 6-well cell culture plate (Corning, 3516) at density of 1E6/well; and cells in the plate were cultured in 37° C. incubator containing 5%-carbon dioxide. The next day, testing compounds were dissolved in DMSO (Sigma, RNBF5902) for the preparation of a 10-mM concentration stock solution. The stock solution was diluted with complete medium (RPMI-1640 supplemented with 10% fetal bovine serum, 1% penicillin-streptomycin), yielding working solutions of various concentrations. The plate, after the addition of compounds, was placed in a 5% carbon dioxide incubator, and incubated at 37° C. for 24 hours (final DMSO concentration was 0.1%). The plate was then removed from the incubator, and the cells were washed twice with precooled PBS (Gibco, 14190250), followed by addition of 80-μL RIPA lysis buffer (containing protease inhibitor (Invitrogen™, AM2696)) to each well. The adherent cells were scraped off with a cell scraper, and the cell lysate was transferred to a 1.5-mL centrifuge tube followed with a 30-minute incubation on ice. The lysate was then clarified with centrifugation at 14000 rpm for 10 min at 4° C. The supernatant was transferred into a new 1.5-mL centrifuge tube, and protein concentration was measured with BCA protein detection kit (Thermo Fisher, 23225). G12D protein level was assessed by western blot.
A mixture of cell lysate (40 μL) and loading buffer (10 μL, 5×SDS (Beyotime, P0015L)) was denatured in a water-bath at 95° C. for 10 min. The denatured protein sample, at 30 μL/well, was loaded into corresponding well of 4-20% Bis-Tris gel (Kingsley, M00656). Protein samples were initially electrophoresed at 80 V for 30 minutes, followed by 120 V for 40 minutes, until the bromophenol blue strip ran to an appropriate position. After electrophoresis, iBlot2 (Life Technologies, IB21001) was used to transfer the separated samples onto PVDF film. The PVDF membrane was washed with double-distilled water and then blocked in TBST (Thermo Scientific, 28360) buffer containing 5% non-fat milk, for 2 hours. Blocked membrane was rinsed with tris-buffered saline tween-20 (Thermo Scientific, 28360, TBST) three times, 10 minutes each. Membrane was then incubated with 1:1000 diluted KRAS primary antibody (CST, cat #14429S) overnight at 4° C. Membrane was rinsed in a way described previously followed by 1 hour incubation of secondary antibody at room temperature. After washing the film for three times with TBST, ECL color developing solution was applied, and image was captured with Biorad Chemi Doc gel imager. The band gray value was quantified (Image Lab), and protein degradation level was calculated according to the following formula:
Level of RAS protein expression=(RAS-compound/GAPDH)/(RAS-DMSO/GAPDH)
Level of degradation (%)=(1−Rate of RAS protein expression)×100
Symbols of −, +, ++, +++ indicate that the degradation level of Ras protein induced by testing compounds are […], 11 to 30%, 31 to 60% and greater than 60%, respectively.
Half-maximum degradation concentrations (DC50s) of testing compounds were calculated using GraphPad Prism and their values were shown in Table 6. Symbols of […] represent DC50s equal or less than 10 nM, 11-50 nM, 51-100 nM, and 101-200 nM, respectively.

T1 sequence (P01116 1-188 isoform P01116-2 G12D): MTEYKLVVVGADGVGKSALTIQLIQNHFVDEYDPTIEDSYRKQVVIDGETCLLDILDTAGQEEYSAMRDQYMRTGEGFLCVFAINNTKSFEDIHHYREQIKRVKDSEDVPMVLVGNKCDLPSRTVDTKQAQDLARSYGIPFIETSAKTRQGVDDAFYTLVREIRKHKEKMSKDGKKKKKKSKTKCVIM

C#Cc1c(F)ccc2cc(O)cc(-c3ncc4c(N5CC6CCC(C5)N6)nc(OC5CCN(CCCCCCCCCCC(=O)N[C@H](C(=O)N6C[C@H](O)C[C@H]6C(=O)N[C@@H](C)c6ccc(-c7scnc7C)cc6)C(C)(C)C)C5)nc4c3F)c12 (stereo partly drawn) [Compound 55]
DC50: 51 to 100 nM

C#Cc1c(F)ccc2cc(O)cc(-c3ncc4c(N5CC6CCC(C5)N6)nc(OC5CCN(CCCCCCCCCCC(=O)N[C@H](C(=O)N6C[C@H](O)C[C@H]6C(=O)NCc6ccc(-c7scnc7C)cc6)C(C)(C)C)CC5)nc4c3F)c12 [Compound 43]
DC50: 51 to 100 nM

C#Cc1c(F)ccc2cc(O)cc(-c3ncc4c(N5CC6CCC(C5)N6)nc(OCC5(CN6CCC7(CC6)CC(N6CCC(c8cc9c(cc8F)c(C8CCC(=O)NC8=O)nn9C)CC6)C7)CC5)nc4c3F)c12 (stereo not drawn) [Compound 41a]
inhibition at 0.005 µM: > 60%
inhibition at 0.05 µM: > 60%

C#Cc1c(F)ccc2cc(O)cc(-c3ncc4c(N5CC6CCC(C5)N6)nc(OC5CCN(CC(=O)N6CCC7(CC6)CC(N6CCC(c8ccc9c(C%10CCC(=O)NC%10=O)nn(C)c9c8)CC6)C7)C5)nc4c3F)c12 (stereo not drawn) [Compound 101]
inhibition at 0.1 µM: 11 to 30%

C#Cc1c(F)ccc2cc(O)cc(-c3ncc4c(N5CC6CCC(C5)N6)nc(N5CC(N6CCN(C(=O)CN7CCC(c8ccc9c(C%10CCC(=O)NC%10=O)nn(C)c9c8)CC7)CC6)C5)nc4c3F)c12 (stereo not drawn) [Compound 120]
inhibition at 0.1 µM: 11 to 30%

C#Cc1c(F)ccc2cc(O)cc(-c3ncc4c(N5CC6CCC(C5)N6)nc(OCCCN5CCN(C(=O)CN6CCC(c7ccc8c(C9CCC(=O)NC9=O)nn(C)c8c7)CC6)CC5)nc4c3F)c12 (stereo not drawn) [Compound 33]
DC50: 11 to 50 nM

C#Cc1c(F)ccc2cc(O)cc(-c3ncc4c(N5CC6CCC(C5)N6)nc(OCC5(CN6CCC(N7CC(C(=O)N8CCC(c9ccc%10c(C%11CCC(=O)NC%11=O)nn(C)c%10c9)CC8)C7)CC6)CC5)nc4c3F)c12 (stereo not drawn) [Compound 35a]
inhibition at 0.005 µM: 31 to 60%
inhibition at 0.05 µM: > 60%

C#Cc1c(F)ccc2cc(O)cc(-c3ncc4c(N5CC6CCC(C5)N6)nc(OCC5(CN6CCC(N7CC(N8CCC(c9ccc%10c(C%11CCC(=O)NC%11=O)nn(C)c%10c9)CC8)C7)CC6)CC5)nc4c3F)c12 (stereo not drawn) [Compound 34a]
inhibition at 0.005 µM: 31 to 60%
inhibition at 0.05 µM: > 60%

C#Cc1c(F)ccc2cc(O)cc(-c3ncc4c(N5CC6CCC(C5)N6)nc(OCC5CCN(CCCCCCCCCCC(=O)N6CCC(c7ccc8c(C9CCC(=O)NC9=O)nn(C)c8c7)CC6)C5)nc4c3F)c12 (stereo not drawn) [Compound 57]
DC50: < 10 nM

C#Cc1c(F)ccc2cc(O)cc(-c3ncc4c(N5CC6CCC(C5)N6)nc(OCCCN5CCC(C(=O)N6CCN(C(=O)C[C@H](NC(=O)[C@@H]7C[C@@H](O)CN7C(=O)[C@@H](NC(=O)C7(F)CC7)C(C)(C)C)c7ccc(-c8scnc8C)cc7)CC6)CC5)nc4c3F)c12 [Compound 65]
inhibition at 1 µM: 11 to 30%

C#Cc1c(F)ccc2cc(O)cc(-c3ncc4c(N5CC6CCC(C5)N6)nc(OCC5(CN6CCC7(CC6)CC(N6CCC(c8ccc(CN9CCC(=O)NC9=O)cc8)CC6)C7)CC5)nc4c3F)c12 [Compound 38a]
inhibition at 0.005 µM: 11 to 30%

C#Cc1c(F)ccc2cc(O)cc(-c3ncc4c(N5CC6CCC(C5)N6)nc(OCC5(CN6CC7(CC(C(=O)N8CCC(c9ccc%10c(C%11CCC(=O)NC%11=O)nn(C)c%10c9)CC8)C7)C6)CC5)nc4c3F)c12 (stereo not drawn) [Compound 27a]
inhibition at 0.005 µM: 11 to 30%
inhibition at 0.05 µM: 11 to 30%

C#Cc1c(F)ccc2cc(O)cc(-c3ncc4c(N5CC6CCC(C5)N6)nc(OC5CCN(CCCCCCCCCCC(=O)N[C@H](C(=O)N6C[C@H](O)C[C@H]6C(=O)N[C@@H](C)c6ccc(-c7scnc7C)cc6)C(C)(C)C)CC5)nc4c3F)c12 [Compound 45]
DC50: 11 to 50 nM

C#Cc1c(F)ccc2cccc(-c3ncc4c(N5CC6CCC(C5)N6)nc(OCC5(CN6CCC7(CC6)CC(N6CCC(c8ccc(NC9CCC(=O)NC9=O)cc8F)CC6)C7)CC5)nc4c3F)c12 (stereo not drawn) [Compound 22a]
inhibition at 0.005 µM: 11 to 30%
inhibition at 0.05 µM: 31 to 60%

C#Cc1c(F)ccc2cc(O)cc(-c3ncc4c(N5CC6CCC(C5)N6)nc(OCC5(CN6CCC(CN7CCC(c8cccc(N9CC(=O)NC9=O)c8)CC7)CC6)CC5)nc4c3F)c12 [Compound 7a]
inhibition at 0.001 µM: 11 to 30%

Nc1cc(Cl)c(C(F)(F)F)c(-c2ncc3c(N4CC5CCC(C4)N5)nc(OCC4(CN5CCC6(CC5)CC(N5CCC(c7cccc(N8CCC(=O)NC8=O)c7)CC5)C6)CC4)nc3c2F)c1 [Compound 19a]
inhibition at 0.005 µM: 11 to 30%
inhibition at 0.05 µM: 11 to 30%

C#Cc1c(F)ccc2cc(O)cc(-c3ncc4c(N5CC6CCC(C5)N6)nc(OCC5(CN6CCC7(CC6)CC(c6cc8c(cc6F)c(N6CCC(=O)NC6=O)nn8C)C7)CC5)nc4c3F)c12 [Compound 39a]
inhibition at 0.005 µM: > 60%
DC50: < 10 nM

C#Cc1c(F)ccc2cc(O)cc(-c3ncc4c(N5CC6CCC(C5)N6)nc(OCC5(CN6CCC(C(=O)N7CCC(c8ccc9c(C%10CCC(=O)NC%10=O)nn(C)c9c8)CC7)CC6)CC5)nc4c3F)c12 (stereo not drawn) [Compound 100]
inhibition at 0.1 µM: > 60%

Cc1ccc2[nH]ncc2c1-c1ncc2c(N3CC4CCC(C3)N4)nc(OCC3(CN4CCC5(CC4)CC(N4CCC(c6ccc7c8c(cccc68)C(=O)N7C6CCC(=O)NC6=O)CC4)C5)CC3)nc2c1F (stereo not drawn) [Compound 18a]
inhibition at 0.005 µM: 11 to 30%

C#Cc1c(F)ccc2cc(O)cc(-c3ncc4c(N5CC6CCC(C5)N6)nc(OC5CCN(CC6CCN(C(=O)C[C@H](NC(=O)[C@@H]7C[C@@H](O)CN7C(=O)[C@@H](NC(=O)C7(F)CC7)C(C)(C)C)c7ccc(-c8scnc8C)cc7)CC6)CC5)nc4c3F)c12 [Compound 70]
inhibition at 0.1 µM: 11 to 30%
inhibition at 1 µM: > 60%

C#Cc1c(F)ccc2cc(O)cc(-c3ncc4c(N5CC6CCC(C5)N6)nc(OC5CCN(CC(=O)N6CCC(c7ccc8c(C9CCC(=O)NC9=O)nn(C)c8c7)CC6)CC5)nc4c3F)c12 (stereo not drawn) [Compound 69]
inhibition at 0.1 µM: > 60%
inhibition at 1 µM: > 60%

C#Cc1c(F)ccc2cc(O)cc(-c3ncc4c(N5CC6CCC(C5)N6)nc(OCC5(CN6CCC7(CC6)CC(N6CCC(c8ccc(NC9%10CC(C9)C(=O)NC%10=O)cc8F)CC6)C7)CC5)nc4c3F)c12 [Compound 36a]
inhibition at 0.005 µM: > 60%
inhibition at 0.05 µM: > 60%
DC50: < 10 nM

C#Cc1c(F)ccc2cc(O)cc(-c3ncc4c(N5CC6CCC(C5)N6)nc(OCC5(CN6CCC(c7ccc8c(C9CCC(=O)NC9=O)nn(C)c8c7)CC6)CC5)nc4c3F)c12 (stereo not drawn) [Compound 99]
inhibition at 0.1 µM: > 60%

C#Cc1c(F)ccc2cc(O)cc(-c3ncc4c(N5CC6CCC(C5)N6)nc(OCC5(CN6CC7(CC(CN8CCC(c9ccc%10c(C%11CCC(=O)NC%11=O)nn(C)c%10c9)CC8)C7)C6)CC5)nc4c3F)c12 (stereo not drawn) [Compound 25a]
inhibition at 0.005 µM: 31 to 60%
inhibition at 0.05 µM: 31 to 60%

C#Cc1c(F)ccc2cc(O)cc(-c3ncc4c(N5CC6CCC(C5)N6)nc(OCCCN5CCN(CCC(=O)N6CCC(c7ccc8c(C9CCC(=O)NC9=O)nn(C)c8c7)CC6)CC5)nc4c3F)c12 (stereo not drawn) [Compound 74]
inhibition at 0.1 µM: 31 to 60%

C#Cc1c(F)ccc2cc(O)cc(-c3ncc4c(N5CC6CCC(C5)N6)nc(OCC5(CN6CCC(CN7CCC(c8cccc(N9CCC(=O)NC9=O)c8C)CC7)CC6)CC5)nc4c3F)c12 [Compound 8a]
inhibition at 0.001 µM: 11 to 30%

C#Cc1c(F)ccc2cc(O)cc(-c3ncc4c(N5CC6CCC(C5)N6)nc(OCC5CCN(CCCCCCCCCCC(=O)N[C@H](C(=O)N6C[C@H](O)C[C@H]6C(=O)N[C@@H](C)c6ccc(-c7scnc7C)cc6)C(C)(C)C)C5)nc4c3F)c12 (stereo partly drawn) [Compound 56]
DC50: 11 to 50 nM
